Assay results published in patent US20130072470A1 (ABBVIE INC., priority 2011, published 2013).

molecular target: T1, Jak3 enzyme (aa 811-1103) (Homo sapiens, UniProt P52333); assay: In vitro Jak3 kinase activity measured by time-resolved fluorescence resonance energy transfer (trFRET); assay type: biochemical; conditions: ATP 0.001 mM, Table B
T1 construct: Jak3 enzyme (aa 811-1103); expressed in SF9 cells as a GST fusion; GST; made in house; host or cells: SF9 insect cells
Protocol: In Vitro Jak3 Kinase Activity Measured by Time-Resolved Fluorescence Resonance Energy Transfer (trFRET)
Varying concentrations of inhibitor were added to an assay well containing: Jak3 enzyme (aa 811-1103; expressed in SF9 cells as a GST fusion and purified by glutathione affinity chromatography; 3 nM), peptide substrate (biotin-TYR2, Sequence: Biotin-(Ahx)-AEEEYFFLFA-amide; 2 μM), MOPSO pH 6.5 (50 mM), MgCl2 (10 mM), MnCl2 (2 mM), DTT (2.5 mM), BSA (0.01% w/v), Na3VO4 (0.1 mM) and ATP (0.001 mM). After about 60 min incubation at rt, the reaction was quenched by addition of EDTA (final concentration: 100 mM) and developed by addition of revelation reagents (final approximate concentrations: 30 mM HEPES pH 7.0, 0.06% BSA, 0.006% Tween-20, 0.24 M KF, 80 ng/mL PT66K (europium labeled anti-phosphotyrosine antibody cat #61T66KLB Cisbio, Bedford, Mass.) and 0.8 μg/mL SAXL (Phycolink streptavidin-allophycocyanin acceptor, cat #PJ52S, Prozyme, San Leandro, Calif.). The developed reaction was incubated in the dark either at about 4° C., for about 14 h or for about 60 min at rt, then read via a time-resolved fluorescence detector (Rubystar, BMG) using a 337 nm laser for excitation and emission wavelength of 665 nm. Within the linear range of the assay, the observed signal at 665 nm is directly related to phosphorylated product and used to calculate the IC50 values.

T1 sequence (P52333 811-1103): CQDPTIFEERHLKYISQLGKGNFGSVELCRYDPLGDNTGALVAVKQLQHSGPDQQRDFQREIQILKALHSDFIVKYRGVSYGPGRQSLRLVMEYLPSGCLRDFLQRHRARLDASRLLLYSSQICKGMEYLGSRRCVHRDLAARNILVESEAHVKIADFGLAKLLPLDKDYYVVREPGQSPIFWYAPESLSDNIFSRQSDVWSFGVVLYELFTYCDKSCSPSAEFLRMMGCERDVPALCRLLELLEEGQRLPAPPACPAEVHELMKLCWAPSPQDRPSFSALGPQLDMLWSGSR

`CC[C@@H]1C[C@H](NC(=O)c2cc(C3CC3)on2)C[C@@H]1c1nnc2cnc3[nH]ccc3n12` [compound 59, 5-cyclopropyl-N-((1S,3R,4S)-3-ethyl-4-(6H-pyrrolo[2,3-e][1,2,4]triazolo[4,3-a]pyrazin-1-yl)cyclopentyl)isoxazole-3-carboxamide] and `CC[C@@H]1C[C@H](NC(=O)c2cnoc2C2CC2)C[C@@H]1c1nnc2cnc3[nH]ccc3n12` [compound 66, 5-cyclopropyl-N-((1S,3R,4S)-3-ethyl-4-(6H-pyrrolo[2,3-e][1,2,4]triazolo[4,3-a]pyrazin-1-yl)cyclopentyl)isoxazole-4-carboxamide] fall in the same range of IC50: 1 to 10 µM for the first, 1 to 10 µM for the second.

`CC[C@@H]1C[C@H](NC(=O)/C=C/c2ccco2)C[C@@H]1c1nnc2cnc3[nH]ccc3n12` [compound 60, (E)-N-((1S,3R,4S)-3-ethyl-4-(6H-pyrrolo[2,3-e][1,2,4]triazolo[4,3-a]pyrazin-1-yl)cyclopentyl)-3-(furan-2-yl)acrylamide] and `CC[C@@H]1C[C@H](NC(=O)c2cocn2)C[C@@H]1c1nnc2cnc3[nH]ccc3n12` [compound 63, N-((1S,3R,4S)-3-ethyl-4-(6H-pyrrolo[2,3-e][1,2,4]triazolo[4,3-a]pyrazin-1-yl)cyclopentyl)oxazole-4-carboxamide] fall in the same range of IC50: 1 to 10 µM for the first, 1 to 10 µM for the second.

`CC[C@@H]1C[C@H](NC(=O)c2cc(C)no2)C[C@@H]1c1nnc2cnc3[nH]ccc3n12` [compound 62, N-((1S,3R,4S)-3-ethyl-4-(6H-pyrrolo[2,3-e][1,2,4]triazolo[4,3-a]pyrazin-1-yl)cyclopentyl)-3-methylisoxazole-5-carboxamide] and `CC[C@@H]1C[C@H](NC(=O)c2cc(OC)no2)C[C@@H]1c1nnc2cnc3[nH]ccc3n12` [compound 65, N-((1S,3R,4S)-3-ethyl-4-(6H-pyrrolo[2,3-e][1,2,4]triazolo[4,3-a]pyrazin-1-yl)cyclopentyl)-3-methoxyisoxazole-5-carboxamide] fall in the same range of IC50: 1 to 10 µM for the first, 1 to 10 µM for the second.

`CC[C@@H]1C[C@H](NC(=O)c2ccc(CSC)o2)C[C@@H]1c1nnc2cnc3[nH]ccc3n12` [compound 64, N-((1S,3R,4S)-3-ethyl-4-(6H-pyrrolo[2,3-e][1,2,4]triazolo[4,3-a]pyrazin-1-yl)cyclopentyl)-5-(methylthiomethyl)furan-2-carboxamide] and `CC[C@@H]1C[C@H](NC(=O)CCc2ccc(C)o2)C[C@@H]1c1nnc2cnc3[nH]ccc3n12` [compound 69, N-((1S,3R,4S)-3-ethyl-4-(6H-pyrrolo[2,3-e][1,2,4]triazolo[4,3-a]pyrazin-1-yl)cyclopentyl)-3-(5-methylfuran-2-yl)propanamide] fall in the same range of IC50: 1 to 10 µM for the first, 1 to 10 µM for the second.

First: CC[C@@H]1C[C@H](NC(=O)CCC2CCC2)C[C@@H]1c1nnc2cnc3[nH]ccc3n12 [compound 67, 3-cyclobutyl-N-((1S,3R,4S)-3-ethyl-4-(6H-pyrrolo[2,3-e][1,2,4]triazolo[4,3-a]pyrazin-1-yl)cyclopentyl)propanamide]
Second: CC[C@@H]1C[C@H](NC(=O)CCC2CCCCC2=O)C[C@@H]1c1nnc2cnc3[nH]ccc3n12 (stereo partly drawn) [compound 70, N-((1S,3R,4S)-3-ethyl-4-(6H-pyrrolo[2,3-e][1,2,4]triazolo[4,3-a]pyrazin-1-yl)cyclopentyl)-3-(2-oxocyclohexyl)propanamide]
The IC50 of the first is lower: 1 to 10 µM for the first, > 10 µM for the second.

Compared with `CC[C@@H]1C[C@H](NC(=O)c2noc3ccccc23)C[C@@H]1c1nnc2cnc3[nH]ccc3n12` [compound 68, N-((1S,3R,4S)-3-ethyl-4-(6H-pyrrolo[2,3-e][1,2,4]triazolo[4,3-a]pyrazin-1-yl)cyclopentyl)benzo[d]isoxazole-3-carboxamide], `CC[C@@H]1C[C@H](NC(=O)Cc2noc3ccccc23)C[C@@H]1c1nnc2cnc3[nH]ccc3n12` [compound 71, 2-(benzo[d]isoxazol-3-yl)-N-((1S,3R,4S)-3-ethyl-4-(6H-pyrrolo[2,3-e][1,2,4]triazolo[4,3-a]pyrazin-1-yl)cyclopentyl)acetamide] is higher in IC50: < 1 µM for the first, 1 to 10 µM for the second. The first is the more potent here.
